How the values were obtained:
MV-3 cell line = assay: MTT cell viability assay, MV-3; type: cell-based
Method: The amelanotic melanoma cell line MV-3 was obtained from EPO GmbH Berlin-Buch. The human ovarian carcinoma cell line A2780 was obtained from the European Collection of Cell Cultures (ECACC, Salisbury, UK). The cell lines were cultivated in RPMI 1640 medium supplemented with 10% fetal bovine serum and 50 U/mL penicillin and 50 µg/mL streptomycin and incubated at 37 °C under humidified air with 5% CO2 to 80–90% confluency before being used in further assays.
For this, 200-fold dilution series of the compounds of the respective stock solutions in DMSO (10 mM) were prepared in DMSO using clear U-bottom 96-well microplates (Greiner Bio-One, Greiner AG, Kremsmünster, Austria). Predilutions intended for photolysis experiments were irradiated for 10 min in the UV reactor described above. Thereafter, all predilutions were further diluted 1:200 in medium and provided in clear sterile F-bottom 96-well plates (Starlab GmbH, Hamburg, Germany). MV-3 cells were added at a density of 3000 cells/well and A2780 cells at a density of 8000 cells/well. The cells were added directly and without prior attachment. Final volume was 200 µL, and the final DMSO concentration was 0,5%. After 72 h, 40 µL MTT (3-(4,5-dimethylthiazol-2-yl)-2,5-diphenyltetrazolium bromide; BioChemica, Applichem GmbH, Darmstadt, Germany ) solution (5 mg/mL in phosphate-buffered saline) was added to determine cell survival. The formazan dye was dissolved in DMSO (Sigma-Aldrich, Steinheim, Germany) after 1 h, and absorbance was measured at 570 nm and 690 nm using a Multiskan microplate photometer (Thermo Fisher Scientific, Waltham, MA, USA). Concentration-effect curves were generated using the four-parameter logistic equation (GraphPad Prism 9.0, San Diego, CA, USA), and mean IC50 values were determined by nonlinear regression based on at least three distinct experiments in duplicates.

A2780 cells = assay: Annexin V/PI apoptosis assay (flow cytometry); type: cell-based, human; details: A2780, 0.5 µM, 48 or 72 h
Method: A2780 cells (4 × 10^4 cells/mL) were seeded in 6-well plates (Starlab GmbH, Hamburg, Germany) and allowed to attach. First, dilutions (500 µM) in DMSO were prepared from the respective stock solutions in DMSO (10 mM). Predilutions for photolysis experiments were irradiated in clear U-bottom 96-well microplates (Greiner Bio-One, Greiner AG, Kremsmünster, Austria) for 10 min in the UV reactor described above. Subsequently, vehicle control (DMSO) or compounds, at a concentration of 0.5 µM, were added to the cells and incubated for 48 h and 72 h, respectively. The final volume was 3 mL, and the final DMSO concentration was 0.1%. Staining was performed in triplicate in two separate experiments using annexin V and propidium iodide and analyzed by flow cytometry (Guava® easyCyte^TM, Luminex, Austin, TX, USA), according to the manufacturer’s protocol (BioLegend, San Diego, CA, USA).
Results were expressed as mean with standard deviation (SD). Statistical analysis was performed using GraphPad Prism (GraphPad Software, San Diego, CA, USA). Normality of the data was analyzed using the Shapiro–Wilk’s test. Statistical significance was assessed using one-way analysis of variance (ANOVA) with Tukey’s multiple comparison test. Differences were considered statistically significant at * p < 0.05, ** p < 0.01, *** p < 0.001.

[1] = Photo-uncaging efficiency (HPLC after irradiation at 365 nm); type: physicochemical; details: 10 min
Method: Photolysis (photo-uncaging) of photocaged HDACi prodrugs was performed at room temperature using a UVP CL-1000 Crosslinker (Analytik Jena GmbH, Jena, Germany) equipped with five UV-A tubes (F8T5/BL368; λmax = 365 nm; Analytik Jena GmbH, Jena, Germany). Hereafter, this entire experimental set-up will be referred to as the “UV reactor”.
For the photo-uncaging efficiency testing, 10 µL of a 1.0 mM DMSO solution of the respective compound was irradiated for 10 min using the UV reactor described above. Subsequently, 90 µL acetonitrile was added, and the samples were analyzed via HPLC. The amount of photo-cleaved HDACi was determined by comparison with a five-point calibration curve of the respective parent inhibitor, using HPLC/UV detection at an appropriate wavelength (area under the curve; area mAu*min).
2. Photouncaging Experiments
Photolysis (photouncaging) of photocaged HDACi prodrugs was performed at room temperature using an UVP CL-1000 Crosslinker (Analytik Jena GmbH, Jena, Germany) equipped with five UV-A tubes (F8T5/BL368; λmax = 365 nm; Analytik Jena GmbH, Jena, Germany). Hereafter, this entire experimental set-up will be referred to as the "UV-reactor".
For the deprotection experiments 10 µL of a 1.0 mM DMSO-solution of the respective compound were irradiated for 10 min using the UV-reactor described above. Subsequently, 90 µL acetonitrile were added and the samples were analyzed via HPLC. The amount of photo-cleaved HDACi was determined by comparison with a five-point calibration curve of the respective parent inhibitor using HPLC/UV detection at an appropriate wavelength (area under the curve; area mAu*min).
Figure S5. Calibration curve of DDK-137 (I).

| Structure (SMILES) | IC50 (MV-3 cell line; MV-3, light or radiation study, MTT, 72 h, without UV irradiation) | early and late apoptosis vs DMSO control (A2780 cells; without UV irradiation) | IC50 (MV-3) (MV-3 cell line; MTT, 72 h, without UV irradiation) | IC50 (MV-3 cell line; MV-3, light or radiation study, MTT, 72 h, after UV irradiation (365 nm, 10 min)) | inhibition at 25 µM (MV-3 cell line; MV-3, light or radiation study, at 25 µM, without UV irradiation) | early and late apoptosis vs DMSO control (A2780 cells; after light activation) | yield of photo-released parent inhibitor ([1]; DMSO, HPLC with calibration curve) | concentration of photo-released parent inhibitor after irradiation ([1]; initial concentration 100 µM) |
| --- | --- | --- | --- | --- | --- | --- | --- | --- |
| CN(C)c1ccc(C(=O)N(CC(=O)NCc2ccccc2)Cc2ccc(C(=O)NO)cc2)cc1 [I, N-[2-(benzylamino)-2-oxoethyl]-4-(dimethylamino)-N-[4-(hydroxycarbamoyl)-benzyl]-benzamide] | 616 ± 161 nM | significant increase in early and late apoptotic cells | – | – | – | – | – | – |
| COc1cc(CONC(=O)c2ccc(CN(CC(=O)NCc3ccccc3)C(=O)c3ccc(N(C)C)cc3)cc2)c([N+](=O)[O-])cc1OC [pc-I, N-[2-(Benzylamino)-2-oxoethyl]-N-(4-{[(4,5-dimethoxy-2-nitrobenzyl)oxy]carbamoyl}benzyl)-4-(dimethylamino)benzamide] | – | no significant increase in early and late apoptosis | n.e. ^b (n.e— no effect: <25% inhibition at 25 µM) | 727 ± 133 nM | < 25% | increased apoptosis levels which were comparable to compound I | 82% | 81.5 µM |

From article PMC10056348, “Photocaged Histone Deacetylase Inhibitors as Prodrugs in Targeted Cancer Therapy” (Pharmaceuticals, 2023)
